Columns and labels:
[1] = system: canines having OA; assay: Double-blind randomized trial in OA canines: owner assessment of pain and mobility (Helsinki chronic pain index, HCPI); assay type: in vivo, canine
Method: The following example evaluates the effectiveness of Alpha-GEE on both pain and mobility in a double-blind randomized trial in canines having OA. […] Together these findings provide clinical evidence of the effectiveness of treatments with Alpha-GEE in reducing the pain and restricted mobility of canines with OA.
The double-blind study was performed on a total of 30 adult canines of various breeds in five different private practice clinics. Owner consent was obtained prior to participation in the study. Each clinic was responsible for enrolling 6 canines into the study. Inclusion criteria for the study consisted of clinical assessment and radiograph confirmation of OA in at least one joint and a score of 22 or greater on the Helsinki chronic pain index (“HCPI”). Use of NSAIDs or other dietary supplements for OA were allowed, provided the current treatment regimens had not been altered for a period of at least three months. A randomized block design was used with canines assigned in a one to one ratio into either placebo (36 mg/kg/day maltose-dextran; Vireo Resources, Plattsmouth, NE) or Alpha-GEE (36 mg/kg/day; Vireo Resources, Plattsmouth, NE) treatment group. The block size was six canines, corresponding to the total number of canines enrolled from each clinic. Group assignments for each canine were blinded to both the owners and attending veterinarian until all the data was collected and reported. Both Alpha-GEE and placebo were provided in 400 mg capsules and owners were instructed on the proper method for daily oral administration of capsules to their canines and provided with the appropriate number of capsules for the duration of the 2-week study. Blood samples were taken at both the start and conclusion of the two-week trial period to monitor for changes in blood chemistry as well as potential changes in inflammatory markers as described below. Owners completed the HCPI prior to starting the study, one-week after starting the study, and a final time at the conclusion of the study at two-weeks.
Statistical evaluations of pain (HCPI), mobility (pedometer readings), and inflammatory markers were performed using ANOVA and Student Newman Keuls post-hoc comparison of means.
Owner assessment of pain and mobility in canines participating in the trial were based on the HCPI. The HCPI is a method for appraisal of pain and mobility in canines. The assessment is based on owner responses to eleven questions with a numerical answer between 0-4. Scoring on the HCPI ranges from 0 to 44, with higher numbers reflecting more pain and immobility present in the canine. Canines in both placebo and treatment group had similar initial pre-trial HCPI scores. […]

[2] = system: TLR-3; assay: TLR expression in exposed cells (real time PCR or immunofluorescent staining); assay type: cell-based
Source text: (§1) In one embodiment, the anti-inflammatory agent may include ethyl (α-guanido-methyl) ethanoate (“Alpha-GEE”). […] Toll receptors act as a key part of our body's recognition mechanism and appear to be a major factor in the onset and/or progression of various medical indications including those that involve inflammation and pain. In particular, real time PCR or immunofluorescent staining of exposed cells was used to assess expression of toll-like receptor-2 (TLR-2), TLR-3, TLR-4, and TLR-7. […] Without being bound by any particular theory, the mechanism by which TLR expression seems to be altered involves decreased pro-inflammatory mediator production in the wake of exposure to Alpha-GEE.

[3] = system: TLR-4; assay: as above; assay type: cell-based
Source text: as §1

[4] = system: TLR-7; assay: as above; assay type: cell-based
Source text: as §1

[5] = system: toll-like receptor-2 (TLR-2); assay: as above; assay type: cell-based
Source text: as §1

[6] = target: cyclooxygenase-1 (COX-1) (Homo sapiens, UniProt P23219); assay: Inhibition of cyclooxygenase-1 activity
cyclooxygenase-1 (COX-1), sequence (P23219 24-599, species assumed): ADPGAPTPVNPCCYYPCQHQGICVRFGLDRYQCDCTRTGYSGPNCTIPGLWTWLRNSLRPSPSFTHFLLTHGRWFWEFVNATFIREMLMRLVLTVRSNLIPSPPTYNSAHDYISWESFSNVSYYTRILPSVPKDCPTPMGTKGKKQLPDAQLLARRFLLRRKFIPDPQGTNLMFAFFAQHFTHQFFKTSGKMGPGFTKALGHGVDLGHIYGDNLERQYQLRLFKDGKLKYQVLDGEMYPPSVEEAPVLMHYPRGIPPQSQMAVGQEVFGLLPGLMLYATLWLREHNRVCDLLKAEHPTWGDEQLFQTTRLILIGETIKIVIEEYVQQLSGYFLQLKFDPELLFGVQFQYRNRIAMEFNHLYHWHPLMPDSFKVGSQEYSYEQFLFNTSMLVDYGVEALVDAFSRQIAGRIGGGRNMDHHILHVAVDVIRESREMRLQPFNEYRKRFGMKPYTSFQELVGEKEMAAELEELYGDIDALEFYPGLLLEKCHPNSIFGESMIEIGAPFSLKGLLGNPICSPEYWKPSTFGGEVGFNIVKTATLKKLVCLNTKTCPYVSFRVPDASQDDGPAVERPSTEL

[7] = target: T1, cyclooxygenase-2 (COX-2) (Homo sapiens, UniProt P35354); assay: Inhibition of cyclooxygenase-2 activity
T1 sequence (P35354 18-604): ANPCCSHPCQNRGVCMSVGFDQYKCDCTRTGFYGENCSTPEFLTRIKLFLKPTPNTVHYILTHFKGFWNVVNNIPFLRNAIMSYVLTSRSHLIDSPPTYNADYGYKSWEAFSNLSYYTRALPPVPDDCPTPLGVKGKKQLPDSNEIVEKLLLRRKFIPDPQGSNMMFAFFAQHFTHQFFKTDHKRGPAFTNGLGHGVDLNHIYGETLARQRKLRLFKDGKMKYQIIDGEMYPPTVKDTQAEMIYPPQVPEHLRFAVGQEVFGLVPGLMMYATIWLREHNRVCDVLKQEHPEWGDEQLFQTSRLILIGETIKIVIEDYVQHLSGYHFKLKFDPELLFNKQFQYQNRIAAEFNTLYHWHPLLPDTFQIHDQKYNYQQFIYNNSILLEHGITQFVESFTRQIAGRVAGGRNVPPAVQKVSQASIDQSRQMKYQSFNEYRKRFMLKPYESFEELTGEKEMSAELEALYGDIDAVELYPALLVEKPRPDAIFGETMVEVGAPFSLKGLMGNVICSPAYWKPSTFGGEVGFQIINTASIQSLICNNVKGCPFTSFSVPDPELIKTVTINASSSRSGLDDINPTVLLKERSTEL

[8] = 1 μM (first of three values printed for '1 μM and 100 μM')
[9] = 100 μM (third of three values printed for '1 μM and 100 μM')
[10] = concentration not printed (second of three values printed for '1 μM and 100 μM')

- inhibition of COX-1 activity ([6]; 0.1 μM): about 20%
- inhibition of COX-1 activity [6, 8]: about 20%
- inhibition of COX-1 activity [6, 9]: about 15%
- concentration dependency of inhibition of COX-1 ([6]; 0.1-100 μM, FIG. 2): did not show a concentration dependency
- inhibition of COX-1 activity [6, 10]: about 15%
- inhibition of COX-2 activity ([7]; 0.1 μM): about 10%
- inhibition of COX-2 activity [7, 8]: about 15%
- inhibition of COX-2 activity [7, 9]: about 15%
- concentration dependency of inhibition of COX-2 ([7]; 0.1-100 μM, FIG. 2): did not show a concentration dependency
- inhibition of COX-2 activity [7, 10]: about 18%
Substance: ethyl (α-guanido-methyl) ethanoate [Alpha-GEE]
- reduction in HCPI score ([1]; after the first week, 36 mg/kg/day oral, not statistically different from placebo): 10-15%
- HCPI score, post-trial value ([1]; after two weeks, 36 mg/kg/day oral, pre-trial value 28, scale 0 to 44): 15
- HCPI scores at the conclusion of the study versus placebo ([1]; two weeks, p<0.001): significantly different
- magnitude of change in HCPI scores during the entire trial (mean+SD) ([1]; two weeks, range 2 to 20, placebo 3+4): 13+7
- expression of TLR-3 in cells [2]: increases expression
- expression of TLR-4 in cells [3]: increases expression
- expression of TLR-7 in cells [4]: increases expression
- expression of TLR-2 in cells [5]: increases expression

— patent US12629348B2, “Method and composition for treating osteoarthritis” (Vireo Systems, Inc., priority 2013, dated 2026)
